In patent US20170355705A1 (GlaxoSmithKline Intellectual Property (No.2) Limited, priority 2014, published 2017):
Where a name gives a salt, the structure may show the parent alone. Read-outs that look alike come from different tables or passages of the source.

Target: T1, SIRT1 (Homo sapiens, UniProt Q96EB6)
T1 sequence (Q96EB6 1-747): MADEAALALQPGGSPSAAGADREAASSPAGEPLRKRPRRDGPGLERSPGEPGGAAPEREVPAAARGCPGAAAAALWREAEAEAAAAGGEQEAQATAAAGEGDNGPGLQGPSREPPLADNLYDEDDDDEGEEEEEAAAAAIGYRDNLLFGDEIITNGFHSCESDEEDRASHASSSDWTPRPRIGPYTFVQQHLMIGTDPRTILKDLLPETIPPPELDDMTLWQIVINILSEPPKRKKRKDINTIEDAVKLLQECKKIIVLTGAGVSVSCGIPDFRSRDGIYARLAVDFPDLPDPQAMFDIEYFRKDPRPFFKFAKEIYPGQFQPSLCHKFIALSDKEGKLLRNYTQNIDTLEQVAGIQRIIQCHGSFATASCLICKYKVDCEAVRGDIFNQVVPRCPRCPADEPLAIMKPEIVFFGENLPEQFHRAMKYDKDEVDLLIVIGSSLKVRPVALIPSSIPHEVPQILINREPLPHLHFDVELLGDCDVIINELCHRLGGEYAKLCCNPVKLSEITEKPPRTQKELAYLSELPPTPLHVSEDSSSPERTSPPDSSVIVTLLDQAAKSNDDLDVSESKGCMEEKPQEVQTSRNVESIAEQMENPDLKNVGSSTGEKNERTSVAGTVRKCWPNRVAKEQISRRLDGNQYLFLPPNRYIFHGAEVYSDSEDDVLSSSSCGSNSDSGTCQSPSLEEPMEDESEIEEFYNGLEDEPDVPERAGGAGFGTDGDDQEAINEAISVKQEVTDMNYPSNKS
Experiment: Trp mass spectrometry assay of SIRT1 activity (EC1.5, percent maximum activation)
Type: biochemical
Description: Mass spectrometry based assays were used to identify modulators of SIRT1 activity. […] The peptide was labeled with the fluorophore 5TMR (excitation 540 nm/emission 580 nm) at the C-terminus. The sequence of the peptide substrate was based on p53 with several modifications. In addition, the methionine residue naturally present in the sequence was replaced with the norleucine because the methionine may be susceptible to oxidation during synthesis and purification.
The Trp mass spectrometry assay was conducted as follows. […] The SIRT1 protein was obtained by cloning the SirT1 gene into a T7-promoter containing vector, which was then expressed in BL21(DE3) bacterial cells and purified as described in further detail below. Test compound was added at varying concentrations to this reaction mixture and the resulting reactions were monitored. After the 25 minute incubation with SIRT1, 10 μL of 10% formic acid was added to stop the reaction. The resulting reactions were sealed and frozen for later mass spec analysis. The relative SIRT1 activity was then determined by measuring the amount of O-acetyl-ADP-ribose (OAADPR) formed (or, alternatively, the amount of deacetylated Trp peptide generated) by the NAD-dependent sirtuin deacetylation reaction in the presence of varying concentrations of the test compound versus control reactions lacking the test compound. The degree to which the test agent activated deacetylation by SIRT1 was expressed as EC1.5 (i.e., the concentration of compound required to increase SIRT1 activity by 50% over the control lacking test compound), and Percent Maximum Activation (i.e., the maximum activity relative to control (100%) obtained for the test compound).
This time point was the same as that used for test compounds and, within the linear range, the endpoint represents a change in velocity.
For the above assay, SIRT1 protein was expressed and purified as follows. The SirT1 gene was cloned into a T7-promoter containing vector and transformed into BL21(DE3). The protein was expressed by induction with 1 mM IPTG as an N-terminal His-tag fusion protein at 18° C. overnight and harvested at 30,000×g. Cells were lysed with lysozyme in lysis buffer (50 mM Tris-HCl, 2 mM Tris[2-carboxyethyl]phosphine (TCEP), 10 μM ZnCl2, 200 mM NaCl) and further treated with sonication for 10 min for complete lysis. The protein was purified over a Ni-NTA column (Amersham) and fractions containing pure protein were pooled, concentrated and run over a sizing column (Sephadex S200 26/60 global). The peak containing soluble protein was collected and run on an Ion-exchange column (MonoQ). Gradient elution (200 mM-500 mM NaCl) yielded pure protein. This protein was concentrated and dialyzed against dialysis buffer (20 mM Tris-HCl, 2 mM TCEP) overnight. The protein was aliquoted and frozen at −80° C. until further use.
“NT” means not tested; “ND” means not determinable.

[1] = Trp mass spectrometry assay, 0.5 μM peptide substrate, 120 μM βNAD+, 10 nM SIRT1, 25 minutes at 25° C.
[2] = Trp mass spectrometry assay, EC1.5 = concentration giving 150% activation of SIRT1
[3] = Trp mass spectrometry assay, percent maximum activation of SIRT1

SMILES	TRP MAX RESP (percent maximum fold activation) [1]	TRP Activity (EC1.5) [2]	TRP MAX RESP (percent maximum fold activation) [3]	TRP Activity (EC1.5, concentration of test compound that results in 150% activation of SIRT1) [1]	other results
O=C(Nc1cnccn1)N1c2nc(N3CCOC(C4CC4)C3)ccc2N2CC[C@H]1C2 (stereo partly shown)	A (Fold activation ≧150%)				
CC[C@@H]1CN(c2ccc3c(n2)N(C(=O)Nc2cnccn2)[C@H]2CCN3C2)CCO1	A (Fold activation ≧150%)				
Cc1cc(-c2ccc3c(n2)N(C(=O)N2CCC(C)C2)[C@H]2CCN3C2)ccn1 (single isomer, unassigned) [Example 193]		C (EC1.5>25 μM)	B (Fold Activation <150%)		
CC1CNCCN1c1ccc2c(n1)N(C(=O)Nc1cnccn1)[C@H]1CCN2C1 (single isomer, unassigned) [Example 228]	B (Fold Activation <150%)			C (EC1.5>25 μM)	
CC1CN(c2ccc3c(n2)N(C(=O)Nc2cnccn2)[C@H]2CCN3C2)CCN1 (single isomer, unassigned) [Example 229]	B (Fold Activation <150%)			C (EC1.5>25 μM)	
O=C(Nc1cnccn1)N1c2nc(N3CCOC(C(F)(F)F)C3)ccc2N2CC[C@H]1C2 (single isomer, unassigned) [Example 230]	A (Fold activation ≧150%)			B (EC1.5 1-25 μM)	
O=C(Nc1cnccn1)N1c2nc(N3CCOC(C(F)(F)F)C3)ccc2N2CC[C@H]1C2 (single isomer, unassigned) [Example 231]	A (Fold activation ≧150%)			A (EC1.5<1 μM)	
Cc1cc(-c2ccc3c(n2)N(C(=O)Nc2cc(CCC(O)CO)ccn2)[C@H]2CCN3C2)ccn1 (single isomer, unassigned) [Example 359]	A (Fold activation ≧150%)			B (EC1.5 1-25 μM)	
Cc1cc(-c2ccc3c(n2)N(C(=O)Nc2cnccn2)C2CCN3C2)ccn1 (stereo in doubt) [Example 149, (4R)-7-(2-methylpyridin-4-yl)-N-(pyrazin-2-yl)-3,4-dihydro-1,4-methanopyrido[2,3-b][1,4]diazepine-5(2H)-carboxamide]		B (EC1.5 1-25 μM)	A (Fold activation ≧150%)		
O=C(Nc1ccnc(OCC(O)CO)c1)N1c2nc(-c3cccc(C(F)(F)F)c3)ccc2N2CC[C@H]1C2 (stereo in doubt) [Example 170, (4S)-N-(2-((S)-2,3-dihydroxypropoxy)pyridin-4-yl)-7-(3-(trifluoromethyl)phenyl)-3,4-dihydro-1,4-methanopyrido[2,3-b][1,4]diazepine-5(2H)-carboxamide]		A (EC1.5<1 μM)	A (Fold activation ≧150%)		
Cc1cc(-c2ccc3c(n2)N(C(=O)Nc2cc(-c4cnc(C)o4)ccn2)C2CCN3C2)ccn1 (stereo in doubt) [Example 335, (4S)-N-(4-(2-methyloxazol-5-yl)pyridin-2-yl)-7-(2-methylpyridin-4-yl)-3,4-dihydro-1,4-methanopyrido[2,3-b][1,4]diazepine-5(2H)-carboxamide, Hydrochloride]	A (Fold activation ≧150%)			B (EC1.5 1-25 μM)	
O=C(Nc1ccnc(OCC(O)CO)c1)N1c2nc(-c3cnn(CC(F)(F)F)c3)c(Cl)cc2N2CC[C@H]1C2 (stereo in doubt) [Example 371, (4S)-8-chloro-N-(2-((R)-2,3-dihydroxypropoxy)pyridin-4-yl)-7-(1-(2,2,2-trifluoroethyl)-1H-pyrazol-4-yl)-3,4-dihydro-1,4-methanopyrido[2,3-b][1,4]diazepine-5(2H)-carboxamide]	A (Fold activation ≧150%)			B (EC1.5 1-25 μM)	
Cc1ccc(-c2nc3c(cc2C(F)(F)F)N2CC[C@@H](C2)N3C(=O)Nc2cccnc2)cn1 [Example 1, (4S)-7-(6-methylpyridin-3-yl)-N-(pyridin-3-yl)-8-(trifluoromethyl)-3,4-dihydro-1,4-methanopyrido[2,3-b][1,4]diazepine-5(2H)-carboxamide]		C (EC1.5>25 μM)	B (Fold Activation <150%)		
Cc1ccc(-c2nc3c(cc2Br)N2CC[C@@H](C2)N3C(=O)Nc2ccccn2)cn1 [Example 2, (4S)-8-bromo-7-(6-methylpyridin-3-yl)-N-(pyridin-2-yl)-3,4-dihydro-1,4-methano pyrido[2,3-b][1,4]diazepine-5(2H)-carboxamide]		B (EC1.5 1-25 μM)	A (Fold activation ≧150%)		
Cc1ccc(-c2nc3c(cc2Cl)N2CC[C@@H](C2)N3C(=O)Nc2cccnc2)cn1 [Example 3, (4S)-8-chloro-7-(6-methylpyridin-3-yl)-N-(pyridin-3-yl)-3,4-dihydro-1,4-methanopyrido[2,3-b][1,4]diazepine-5(2H)-carboxamide]					TRP Activity (EC1.5): B (key: A: EC1.5<1 μM; B: EC1.5 1-25 μM; EC1.5>25 μM); TRP MAX RESP (percent maximum fold activation): A (key: A: Fold activation ≧150%; B: Fold Activation <150%)
Cc1ccc(-c2nc3c(cc2F)N2CC[C@@H](C2)N3C(=O)Nc2ccccn2)cn1 [Example 5, (4S)-8-fluoro-7-(6-methylpyridin-3-yl)-N-(pyridin-2-yl)-3,4-dihydro-1,4-methanopyrido[2,3-b][1,4]diazepine-5(2H)-carboxamide]		B (EC1.5 1-25 μM)	A (Fold activation ≧150%)		
Cc1ccc(-c2nc3c(cc2Br)N2CC[C@@H](C2)N3C(=O)Nc2cccnc2)cn1 [Example 6, (4S)-8-bromo-7-(6-methylpyridin-3-yl)-N-(pyridin-3-yl)-3,4-dihydro-1,4-methanopyrido[2,3-b][1,4]diazepine-5(2H)-carboxamide]		B (EC1.5 1-25 μM)	A (Fold activation ≧150%)		
Cc1ccc(-c2nc3c(cc2F)N2CC[C@@H](C2)N3C(=O)Nc2cccnc2)cn1 [Example 7, (4S)-8-fluoro-7-(6-methylpyridin-3-yl)-N-(pyridin-3-yl)-3,4-dihydro-1,4-methanopyrido[2,3-b][1,4]diazepine-5(2H)-carboxamide]					TRP Activity (EC1.5): B (key: A: EC1.5<1 μM; B: EC1.5 1-25 μM; EC1.5>25 μM); TRP MAX RESP (percent maximum fold activation): A (key: A: Fold activation ≧150%; B: Fold Activation <150%)
